Measured values taken from ChEMBL document CHEMBL4808221, “Design and Synthesis of Novel c-di-GMP G-Quadruplex Inducers as Bacterial Biofilm Inhibitors” (J Med Chem, 2021).
The source made the active and inactive calls.

Assays:
c-di-GMP G-quadruplex [1] = test: Induction of c-di-GMP G-quadruplex formation in Pseudomonas aeruginosa PAO1 harboring wspF gene mutation assessed as induction of fleN expression at 1.25 uM by RT-PCR method
c-di-GMP G-quadruplex [2] = test: Induction of c-di-GMP G-quadruplex formation in Pseudomonas aeruginosa PAO1 harboring wspF gene mutation assessed as inhibition of biofilm formation incubated for 20 hrs by crystal violet staining assay relative to control; format: nucleic-acid assay
c-di-GMP G-quadruplex [3] = test: Induction of c-di-GMP G-quadruplex formation in Pseudomonas aeruginosa PAO1 harboring wspF gene mutation assessed as induction of flhF expression at 1.25 uM incubated for 15 hrs by transcriptome analysis
c-di-GMP G-quadruplex [4] = test: Induction of c-di-GMP G-quadruplex formation in Pseudomonas aeruginosa PAO1 harboring wspF gene mutation assessed as reduction in pslE expression at 1.25 uM by RT-PCR method
Pseudomonas aeruginosa [5] = test: Effect on swarming capacity of Pseudomonas aeruginosa PAO1 harboring wspF gene mutation assessed as increase in motility at 3.75 uM incubated for 14 hrs relative to control; format: functional
[6] = Binding affinity to guanosine monophosphate (unknown origin) at 5 uM by fluorescence method
c-di-GMP G-quadruplex [7] = test: Induction of c-di-GMP G-quadruplex formation in Pseudomonas aeruginosa PAO1 harboring wspF gene mutation assessed as inhibition of biofilm formation at 1.25 uM incubated for 20 hrs by crystal violet staining assay relative to control; format: nucleic-acid assay
Pseudomonas aeruginosa [8] = test: Effect on swarming capacity of Pseudomonas aeruginosa PAO1 harboring wspF gene mutation assessed as increase in motility at 2.5 uM incubated for 14 hrs relative to control; format: functional
c-di-GMP G-quadruplex [9] = test: Induction of c-di-GMP G-quadruplex formation in Pseudomonas aeruginosa PAO1 harboring wspF gene mutation assessed as reduction in pelB expression at 1.25 uM by RT-PCR method
Pseudomonas aeruginosa [10] = test: Effect on extracellular polysaccharide in Pseudomonas aeruginosa PAO1 harboring wspF gene mutation assessed as reduction in EPS production at 0.15625 to 0.625 uM by congo red binding assay; format: functional, organism-based; details: dose 0.15625-0.625 µM
[11] = Binding affinity to c-di-GMP (unknown origin) at 5 uM using varying level of c-di-GMP by fluorescence method
c-di-GMP G-quadruplex [12] = test: Downregulation of c-di-GMP level in Pseudomonas aeruginosa PAO1 harboring wspF gene mutation assessed as reduction in Alg44 expression at 1.25 uM incubated for 15 hrs by transcriptome analysis
[13] = Cytotoxicity against human AC16 cells assessed as cell survival at 0.15625 to 10 uM incubated for 24 hrs by MTT assay relative to control; format: cell-based, AC16 [Human hybrid]; details: dose 0.15625-10 µM, read-out: Survival
c-di-GMP G-quadruplex [14] = test: Induction of c-di-GMP G-quadruplex formation in Pseudomonas aeruginosa PAO1 harboring wspF gene mutation assessed as inhibition of biofilm formation incubated for 24 hrs by confocal microscopic method; format: nucleic-acid assay
c-di-GMP G-quadruplex [15] = test: Induction of c-di-GMP G-quadruplex formation in Pseudomonas aeruginosa PAO1 harboring wspF gene mutation assessed as induction of flgA expression at 1.25 uM incubated for 15 hrs by transcriptome analysis
c-di-GMP G-quadruplex [16] = test: Downregulation of c-di-GMP level in Pseudomonas aeruginosa PAO1 harboring wspF gene mutation assessed as induction of tpbA expression at 1.25 uM incubated for 15 hrs by transcriptome analysis
Pseudomonas aeruginosa [17] = test: Antibacterial activity against Pseudomonas aeruginosa PAO1 harboring wspF gene mutation assessed as reduction in bacterial growth at 0.15625 to 2.5 uM by confocal microscopic method; format: functional, organism-based; details: dose 0.15625-2.5 µM
[18] = Binding affinity to d-NTP (unknown origin) at 5 uM by fluorescence method
[19] = Cytotoxicity against human AC16 cells assessed as cell survival at 1.25 uM incubated for 24 hrs by MTT assay relative to control; format: cell-based, AC16 [Human hybrid]; details: read-out: Survival
c-di-GMP G-quadruplex [20] = test: Induction of c-di-GMP G-quadruplex formation in Pseudomonas aeruginosa PAO1 harboring wspF gene mutation assessed as induction of flhA expression at 1.25 uM incubated for 15 hrs by transcriptome analysis
Pseudomonas aeruginosa [21] = test: Effect on extracellular polysaccharide in Pseudomonas aeruginosa PAO1 harboring wspF gene mutation assessed as reduction in EPS production at 1.25 uM by congo red binding assay relative to control; format: functional; parameters: scale not given: the % may be the effect or the level left
c-di-GMP G-quadruplex [22] = test: Induction of c-di-GMP G-quadruplex formation in Pseudomonas aeruginosa PAO1 harboring wspF gene mutation assessed as reduction in cdrA expression at 1.25 uM by RT-PCR method
Pseudomonas aeruginosa [23] = test: Effect on swarming capacity of Pseudomonas aeruginosa PAO1 harboring wspF gene mutation assessed as increase in motility at 5 uM incubated for 14 hrs relative to control; format: functional
Pseudomonas aeruginosa [24] = test: Antibacterial activity against Pseudomonas aeruginosa PAO1 harboring wspF gene mutation assessed as reduction in bacterial growth at 512 uM by crystal violet staining assay relative to control; format: functional, organism-based
c-di-GMP G-quadruplex [25] = test: Induction of c-di-GMP G-quadruplex formation in Pseudomonas aeruginosa PAO1 harboring wspF gene mutation assessed as induction of fliD expression at 1.25 uM incubated for 15 hrs by transcriptome analysis
Bacteria [26] = test: Effect on WspR (unknown origin) assessed as reduction in c-di-GMP level at 1.25 to 5 uM measured by HPLC method; details: dose 1.25-5 µM
c-di-GMP G-quadruplex [27] = test: Induction of c-di-GMP G-quadruplex formation in Pseudomonas aeruginosa PAO1 harboring wspF gene mutation and LacZ reporter gene assessed as reduction in PelA expression by measuring decrease in lacZ activity at 0.3125 to 1.25 uM incubated for 4 hrs by absorbance method; details: dose 0.3125-1.25 µM
Pseudomonas aeruginosa [28] = test: Antibacterial activity against Pseudomonas aeruginosa PAO1 assessed as reduction in biofilm formation at 0.15625 to 1.25 uM by crystal violet staining method; format: functional, organism-based; details: dose 0.15625-1.25 µM
c-di-GMP G-quadruplex [29] = test: Induction of c-di-GMP G-quadruplex formation in Pseudomonas aeruginosa PAO1 harboring wspF gene mutation assessed as induction of fleN expression at 1.25 uM incubated for 15 hrs by transcriptome analysis
DNA = test: Toxicity assessed as induction of Escherichia coli pBR322 DNA intercalation activity at 10 uM incubated for 10 mins by polyacrylamide gel electrophoresis method
[30] = Binding affinity to r-NTP (unknown origin) at 5 uM by fluorescence method
c-di-GMP G-quadruplex [31] = test: Induction of c-di-GMP G-quadruplex formation in Pseudomonas aeruginosa PAO1 harboring wspF gene mutation assessed as induction of flhA expression at 1.25 uM by RT-PCR method
c-di-GMP G-quadruplex [32] = test: Induction of c-di-GMP G-quadruplex formation in Pseudomonas aeruginosa […] assessed as inhibition of biofilm formation at 0.15625 to 1.25 uM by confocal microscopic method; format: nucleic-acid assay; details: PAO1, dose 0.15625-1.25 µM
c-di-GMP G-quadruplex [33] = test: Induction of c-di-GMP G-quadruplex formation in Pseudomonas aeruginosa PAO1 harboring wspF gene mutation assessed as suppression of cdrA expression at 1.25 uM incubated for 15 hrs by transcriptome analysis
Quadruplex DNA = test: Induction of c-di-GMP G-quadruplex formation (unknown origin) measured at 300 nanometer by CD spectroscopy; format: nucleic-acid assay
Bacteria [34] = test: Effect on RocR (unknown origin) assessed as induction of c-di-GMP degradation at 1.25 to 5 uM measured by HPLC method; details: dose 1.25-5 µM

COc1cc(/C=C/c2sc3ccccc3[n+]2C)ccc1O.[I-]
62.2%: inhibition (c-di-GMP G-quadruplex [7])
30%: Activity (Pseudomonas aeruginosa [21])
> 90%: viability at 24 h, up to 10 µM [13]
Non-Toxic: Activity (DNA)
active: Activity (c-di-GMP G-quadruplex [1]) | Activity (c-di-GMP G-quadruplex [3]) | Activity (c-di-GMP G-quadruplex [4]) | Activity [6] | Activity (c-di-GMP G-quadruplex [9]) | Activity (Pseudomonas aeruginosa [10]) | Activity [11] | Activity (c-di-GMP G-quadruplex [12]) | Activity (c-di-GMP G-quadruplex [14]) Dose-Dependent Effect | Activity (c-di-GMP G-quadruplex [15]) | Activity (c-di-GMP G-quadruplex [16]) | Activity [18] | Activity (c-di-GMP G-quadruplex [20]) | Activity (c-di-GMP G-quadruplex [22]) | Activity (c-di-GMP G-quadruplex [25]) | Activity (c-di-GMP G-quadruplex [27]) | Activity (Pseudomonas aeruginosa [28]) | Activity (c-di-GMP G-quadruplex [29]) | Activity [30] | Activity (c-di-GMP G-quadruplex [31]) | Activity (c-di-GMP G-quadruplex [32]) | Activity (c-di-GMP G-quadruplex [33]) | Activity (Quadruplex DNA)
77%: Activity (Pseudomonas aeruginosa [23])
96%: viability at 24 h, 1.25 µM [19]
34%: Activity (Pseudomonas aeruginosa [5])
15%: Activity (Pseudomonas aeruginosa [8])
inactive: Activity (Pseudomonas aeruginosa [17]) | Activity (Pseudomonas aeruginosa [24]) | Activity (Bacteria [26]) | Activity (Bacteria [34])
0.88 µM: IC50 (c-di-GMP G-quadruplex [2])
